6 molecules from DBAASP can be followed below.

SMILES strings stand for the structures. Values after ≈ are worked out from the molar mass of the structure shown. Values joined by “and” are separate entries in the source; they are usually repeats but may differ in a detail not shown here. Equal entries are not always repeated.

Among the test systems are Escherichia coli BL21; Vibrio alginolyticus; Vibrio vulnificus 204; Helicobacter pylori.
Assay in all cases: ≥ marks a high value that may be exact or a test limit, other limits are often not marked, values filed in µg/mL are converted to µM
Test [1] deals with Batrachochytrium dendrobatidis.
Test [2] has as its system Staphylococcus aureus ATCC 25923.
Test [3] concerns Aggregatibacter actinomycetemcomitans ATCC 29522.
The subject of test [4] is Pseudomonas aeruginosa ATCC 27853.
In test [5] the test system is Staphylococcus aureus ATCC 700699.
In test [6] the test system is Klebsiella pneumoniae KK3 9904.
Test [7] has as its system Enterobacter cloacae NHTCC 53001.
The subject of test [8] is Staphylococcus aureus ATCC 29213.
Test [9] has as its system Proteus mirabilis ATCC 25933.
Test [10] deals with Klebsiella pneumoniae ATCC 700603.
Test [11] relates to Staphylococcus aureus ATCC 33591.
In test [12] the test system is Staphylococcus aureus CIB 85462.
In test [13] the test system is Escherichia coli ATCC 25922.
In test [14] the test system is Escherichia coli CIB 84492.
Test [15] deals with Candida albicans CIB 45437.
The subject of test [16] is Candida albicans ATCC 90028.
Test [17] concerns Batrachochytrium dendrobatidis JEL-197.
The subject of test [18] is Escherichia coli ATCC 25726.
Test [19] concerns Staphylococcus epidermidis.
In test [20] the test system is Staphylococcus aureus ATCC 6538P.
Test [21] has as its system Klebsiella pneumoniae ATCC 13883.
The test system of test [22] is Staphylococcus aureus ATCC BAA-41.
For test [23], the system named is Pseudomonas aeruginosa PAO1.
Test [24] concerns Escherichia coli KpC+001812446.
For test [25], the system named is Escherichia coli ATCC 11303.
In test [26] the test system is Staphylococcus aureus ATCC 259230.
Test [27] relates to Klebsiella pneumoniae KpC+001825971.
For test [28], the system named is Helicobacter pylori ATCC 700392.
The subject of test [29] is Streptococcus agalactiae BCRC 10787.
For test [30], the system named is Helicobacter pylori ATCC 43629.
Test [31] relates to Aeromonas hydrophila BCRC 13018.
The subject of test [32] is Streptococcus agalactiae 819.
Test [33] deals with Pseudomonas aeruginosa ATCC 19660.
The test system of test [34] is Helicobacter pylori ATCC 43504.
The subject of test [35] is Enterococcus faecalis BCRC 10066.
The subject of test [36] is Pseudomonas aeruginosa ATCC 9027.
For test [37], the system named is Staphylococcus aureus ATCC 6538.
The subject of test [38] is Bacillus subtilis ATCC 9372.
The subject of test [39] is Proteus vulgaris NCTC 4635.
The subject of test [40] is Escherichia coli ATCC 8739.

Take `CC[C@H](C)[C@H](NC(=O)[C@H](CC(=O)O)NC(=O)[C@H](CCCCN)NC(=O)[C@H](C)NC(=O)[C@H](C)NC(=O)CNC(=O)[C@H](CCCCN)NC(=O)[C@H](CC(C)C)NC(=O)[C@@H](NC(=O)[C@H](CC(=O)O)NC(=O)[C@@H](NC(=O)[C@@H](NC(=O)CN)C(C)C)C(C)C)[C@@H](C)CC)C(=O)N[C@@H](C)C(=O)NCC(=O)N[C@@H](Cc1cnc[nH]1)C(=O)N[C@@H](CC(C)C)C(=O)N[C@@H](C)C(=O)N[C@@H](CO)C(=O)N[C@@H](CCCCN)C(=O)N[C@H](C(=O)N[C@@H](CCSC)C(=O)N[C@@H](CC(N)=O)C(=O)N[C@@H](CCCCN)C(=O)N[C@@H](CC(C)C)C(N)=O)C(C)C` [GVVDILKGAAKDIAGHLASKVMNKL]: the MIC was at least 100 µM in test [1]; 110 µM (≈ 280 µg/mL) in test [2]; 24.8 µM (≈ 63.3 µg/mL) in [3]; 80 µM and 100 µM in test [4]; at least 100 µM in [5]; at least 80 µM in [6]. The MIC in [7] was 20 µM (≈ 51 µg/mL); in test [8], above 100 µM; in test [9], at least 160 µM; in test [10], 100 µM (≈ 255 µg/mL); in [11], at least 100 µM.

Take `CC[C@H](C)[C@H](NC(=O)CN)C(=O)N[C@@H](Cc1ccccc1)C(=O)NCC(=O)N[C@@H](CCCCN)C(=O)N[C@H](C(=O)N[C@@H](CC(C)C)C(=O)NCC(=O)N[C@@H](C)C(=O)NCC(=O)N[C@@H](CCCCN)C(=O)N[C@@H](CCCCN)C(=O)N[C@H](C(=O)N[C@@H](CC(C)C)C(=O)N[C@H]1CSSC[C@@H](C(=O)O)NC(=O)[C@H](CC(C)C)NC(=O)CNC(=O)[C@H](CO)NC(=O)[C@H](CC(C)C)NC(=O)CNC1=O)C(C)C)[C@@H](C)CC` [GIFGKILGAGKKVLCGLSGLC]: the MIC in test [12] is 7.86 µM (≈ 16 µg/mL); in [2], 15.7 µM (≈ 32 µg/mL); in [13], 15.7 µM (≈ 32 µg/mL); in [14] it was 15.7 µM (≈ 32 µg/mL); in test [15], at least 62.9 µM.

For `CC[C@H](C)[C@H](NC(=O)[C@H](Cc1ccccc1)NC(=O)[C@H](CCCCN)NC(=O)[C@H](CCCCN)NC(=O)[C@H](C)NC(=O)[C@H](CC(C)C)NC(=O)[C@H](CC(N)=O)NC(=O)[C@@H](NC(=O)[C@H](CC(C)C)NC(=O)[C@@H](NC(=O)[C@H](CC(=O)O)NC(=O)[C@H](CC(C)C)NC(=O)[C@H](Cc1ccccc1)NC(=O)[C@@H](N)CC(N)=O)[C@@H](C)O)[C@@H](C)CC)C(N)=O` [NFLDTLINLAKKFI], the MIC was 50 µM (≈ 82.5 µg/mL) in [2], at least 50 µM in test [16], 25 µM (≈ 41.2 µg/mL) in [17] and at least 100 µM in test [18].

Take `CC[C@H](C)[C@H](NC(=O)[C@H](CCCCN)NC(=O)[C@H](CCCCN)NC(=O)[C@H](Cc1ccccc1)NC(=O)[C@H](CC(C)C)NC(=O)[C@H](CCCCN)NC(=O)[C@H](Cc1c[nH]c2ccccc12)NC(=O)[C@@H](N)CCCCN)C(=O)NCC(=O)N[C@@H](C)C(=O)N[C@H](C(=O)N[C@@H](CC(C)C)C(=O)N[C@@H](CCCCN)C(=O)N[C@H](C(=O)N[C@@H](CC(C)C)C(=O)O)C(C)C)C(C)C` [KWKLFKKIGAVLKVL]: the MIC in test [19] was 0.707 µM (≈ 1.25 µg/mL); in test [13], 5 µM (≈ 8.86 µg/mL); in [20] it was 1 µM (≈ 1.77 µg/mL); in test [21], at least 36 µM; in test [22], 1.41 µM (≈ 2.5 µg/mL); in test [23], 2.83 µM (≈ 5.01 µg/mL). Moreover, the MIC in test [24] is 5 µM (≈ 8.86 µg/mL); in test [25], at least 50 µM; in test [26], at least 50 µM; against Escherichia coli BL21, 0.707 µM (≈ 1.25 µg/mL); in test [27] it was 9 µM (≈ 15.9 µg/mL).

With `CC(C)C[C@H](NC(=O)[C@@H](NC(=O)[C@H](CO)NC(=O)[C@H](CC(=O)O)NC(=O)[C@H](Cc1c[nH]c2ccccc12)NC(=O)[C@H](CC(=O)O)NC(=O)[C@@H](N)Cc1ccccc1)C(C)C)C(=O)N[C@@H](CCCCN)C(=O)NCC(=O)N[C@H](C(=O)N[C@@H](CCC(=O)O)C(=O)NCC(=O)N[C@@H](Cc1ccccc1)C(=O)N[C@H](C(=O)N[C@@H](CCCN=C(N)N)C(=O)NCC(=O)N[C@@H](Cc1ccc(O)cc1)C(=O)N[C@@H](Cc1ccccc1)C(N)=O)C(C)C)C(C)C` [FDWDSVLKGVEGFVRGYF], the MIC in [28] was 5.66 µM (≈ 12 µg/mL); in [29] it was 11.1 µM (≈ 23.6 µg/mL); in the test on Vibrio alginolyticus it was 11.1 µM (≈ 23.6 µg/mL); in test [30], 5.66 µM (≈ 12 µg/mL); in test [31] it was 11.1 µM (≈ 23.6 µg/mL); with Vibrio vulnificus 204 it was 11.1 µM (≈ 23.6 µg/mL). Besides, the MIC in [32] worked out at 11.1 µM (≈ 23.6 µg/mL); in test [33] it was 11.1 µM (≈ 23.6 µg/mL); in the test with Helicobacter pylori, 5.66 µM (≈ 12 µg/mL); in [34], 5.66 µM (≈ 12 µg/mL); in test [35], 11.1 µM (≈ 23.6 µg/mL).

Turning to `CC[C@H](C)[C@H](NC(=O)[C@@H](NC(=O)[C@@H](NC(=O)[C@H](CC(=O)O)NC(=O)[C@H](Cc1ccccc1)NC(=O)[C@H](CC(C)C)NC(=O)CN)C(C)C)C(C)C)C(=O)NCC(=O)NCC(=O)N[C@@H](CC(C)C)C(=O)O` [GLFDVVIGGL], the MIC in test [36] is above 1040 µM; in [37], above 1040 µM; in test [38], at least 1040 µM; in test [39] it was at least 1040 µM; in test [40], at least 1040 µM.
